In patent US9718804B2, “GSK-3 inhibitors” (BRISTOL-MYERS SQUIBB COMPANY, priority 2013, dated 2017):
Where two headings read alike, the source gives them in different places.

Tests used:
[1] = target: GSK3β (Homo sapiens, UniProt P49841); assay: GSK3β kinase assay (Caliper LabChip, fluoresceinated peptide substrate); type: biochemical
Summary of the method: (§1)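 Readout: electrophoretic resolution of phosphorylated from unphosphorylated peptide on a LabChip3000. Reactions incubated 20 h at room temperature before termination with 35 mM EDTA. Eleven-concentration curves gave IC50 via non-linear regression.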

[2] = target: GSK3α (Homo sapiens, UniProt P49840); assay: GSK3α kinase assay (Caliper LabChip, fluoresceinated peptide substrate); type: biochemical
Summary of the method: as §1

[3] = test system: pTau; assay: pTau assay (no method described); type: cell-based
[4] = first value of the cell, 250 pM enzyme, 20 uM ATP, 20 hours at room temperature, read-out: GSK3β/α (nM): GSK3β IC50

Chain of GSK3β (P49841 whole entry, species assumed): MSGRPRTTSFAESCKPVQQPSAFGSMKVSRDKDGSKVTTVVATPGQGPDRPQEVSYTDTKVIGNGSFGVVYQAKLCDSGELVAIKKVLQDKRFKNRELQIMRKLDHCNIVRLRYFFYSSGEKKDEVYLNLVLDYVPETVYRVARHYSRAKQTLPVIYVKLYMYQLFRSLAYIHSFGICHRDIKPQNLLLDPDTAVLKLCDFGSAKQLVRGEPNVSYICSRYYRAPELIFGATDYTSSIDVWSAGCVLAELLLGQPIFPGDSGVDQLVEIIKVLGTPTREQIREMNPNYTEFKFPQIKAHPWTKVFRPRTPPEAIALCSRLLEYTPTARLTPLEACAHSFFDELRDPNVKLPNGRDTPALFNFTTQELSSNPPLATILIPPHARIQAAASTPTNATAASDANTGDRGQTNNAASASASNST
Chain of GSK3α (P49840 whole entry, species assumed): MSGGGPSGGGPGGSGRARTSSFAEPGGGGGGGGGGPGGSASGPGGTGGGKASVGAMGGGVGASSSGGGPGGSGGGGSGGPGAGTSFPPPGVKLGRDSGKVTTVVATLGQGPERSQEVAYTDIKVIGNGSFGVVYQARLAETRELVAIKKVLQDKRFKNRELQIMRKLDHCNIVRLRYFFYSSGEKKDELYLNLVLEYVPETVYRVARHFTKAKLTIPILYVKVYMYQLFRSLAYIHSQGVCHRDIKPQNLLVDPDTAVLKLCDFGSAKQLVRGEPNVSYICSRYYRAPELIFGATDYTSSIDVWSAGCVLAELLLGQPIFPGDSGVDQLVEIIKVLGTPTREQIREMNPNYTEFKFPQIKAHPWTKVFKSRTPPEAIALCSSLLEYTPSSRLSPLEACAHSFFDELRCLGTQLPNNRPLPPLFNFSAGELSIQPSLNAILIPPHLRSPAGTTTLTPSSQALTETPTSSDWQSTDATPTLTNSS

Row | SMILES | IC50 [1, 4] | IC50 [2] | IC50 [3] | IC50 [1] | IC50 ([2]; second value of the cell, 250 pM enzyme, 20 uM ATP, 20 hours at room temperature, read-out: GSK3β/α (nM): GSK3α IC50)
1 | CC(O)c1ccncc1NC(=O)c1ccnc(Nc2ccc(C(F)(F)F)cn2)c1 (stereo not drawn) [Example 34, N-(4-(1-Hydroxyethyl)pyridin-3-yl)-2-((5-(trifluoromethyl)pyridin-2-yl)amino)isonicotinamide] | 3.2 nM | 1.4 nM | 37 nM | – | –
2 | N#Cc1ccc(Nc2cc(C(=O)Nc3cncc(-c4ccccc4F)c3)ccn2)nc1 [Example 135, 2-((5-Cyanopyridin-2-yl)amino)-N-(5-(2-fluorophenyl)pyridin-3-yl)isonicotinamide] | 3 nM | 1.7 nM | 670 nM | – | –
3 | CC1OC(C)(c2cc(Cl)ncc2NC(=O)c2ccnc(Nc3ccc(C(F)(F)F)cn3)c2)OC1C (stereo not drawn) [Example 78, N-(6-Chloro-4-(2,4,5-trimethyl-1,3-dioxolan-2-yl)pyridin-3-yl)-2-((5-(trifluoromethyl)pyridin-2-yl)amino)isonicotinamide] | 4.5 nM | 3.2 nM | 170 nM | – | –
4 | O=C(Nc1cnccc1N1CCC(F)(F)CC1)c1ccnc(Nc2ccc(C(F)(F)F)cn2)c1 [Example 24, N-(4-(4,4-Difluoropiperidin-1-yl)pyridin-3-yl)-2-((5-(trifluoromethyl)pyridin-2-yl)amino)isonicotinamide] | 0.69 nM | 0.49 nM | 4.6 nM | – | –
5 | O=C(Nc1cncnc1Br)c1ccnc(Nc2ccc(C(F)(F)F)cn2)c1 [Example 192, N-(4-Bromopyrimidin-5-yl)-2-((5-(trifluoromethyl)pyridin-2-yl)amino)isonicotinamide] | 23 nM | 9.3 nM | 520 nM | – | –
6 | CC1(c2ccncc2NC(=O)c2ccnc(Nc3ccc(C(F)(F)F)cn3)c2)OCCO1 [Example 33, N-(4-(2-Methyl-1,3-dioxolan-2-yl)pyridin-3-yl)-2-((5-(trifluoromethyl)pyridin-2-yl)amino)isonicotinamide] | 0.29 nM | 0.18 nM | 0.55 nM | – | –
7 | O=C(Nc1cncc(-c2cc(F)ccc2F)c1)c1ccnc(Nc2cccc(C(F)(F)F)n2)c1 [Example 146, N-(5-(2,5-Difluorophenyl)pyridin-3-yl)-2-((6-(trifluoromethyl)pyridin-2-yl)amino)isonicotinamide] | 5.1 nM | 3.2 nM | 1400 nM | – | –
8 | O=C(Nc1cncc(-c2ccccc2F)c1)c1ccnc(Nc2ccc(N3CCOCC3)cn2)c1 [Example 140, N-(5-(2-Fluorophenyl)pyridin-3-yl)-2-((5-morpholinopyridin-2-yl)amino)isonicotinamide] | 6.7 nM | 10 nM | 980 nM | – | –
9 | O=C(Nc1cnccc1-c1ccccc1)c1ccnc(Nc2ccccn2)c1 [Example 1, N-(4-Phenylpyridin-3-yl)-2-(pyridin-2-ylamino)isonicotinamide] | 3.4 nM | 2.6 nM | 213 nM | – | –
10 | O=C(Nc1cncnc1)c1ccnc(Nc2ccc(C(F)(F)F)cn2)c1 [Example 191, N-(Pyrimidin-5-yl)-2-((5-(trifluoromethyl)pyridin-2-yl)amino)isonicotinamide] | 17 nM | 9 nM | 1600 nM | – | –
11 | CC(C)CS(=O)(=O)c1ccncc1NC(=O)c1ccnc(Nc2ccc(C(F)(F)F)cn2)c1 [Example 185, N-(4-(Isobutylsulfonyl)pyridin-3-yl)-2-((5-(trifluoromethyl)pyridin-2-yl)amino)isonicotinamide] | – | – | 49 nM | 0.51 nM | 4.8 nM
12 | CCOc1ccncc1NC(=O)c1ccnc(Nc2ccc(C)cn2)c1 [Example 14, N-(4-Ethoxypyridin-3-yl)-2-((5-methylpyridin-2-yl)amino)isonicotinamide] | 0.47 nM | 1.5 nM | 125 nM | – | –
13 | O=C(Nc1cnc(Cl)cc1S(=O)(=O)C1CC1)c1ccnc(Nc2ccc(C(F)(F)F)cn2)c1 [Example 188, N-(6-Chloro-4-(cyclopropylsulfonyl)pyridin-3-yl)-2-((5-(trifluoromethyl)pyridin-2-yl)amino)isonicotinamide] | 5 nM | 3.3 nM | 150 nM | – | –
14 | CCC(O)(c1cc(Cl)ncc1NC(=O)c1ccnc(Nc2ccc(C(F)(F)F)cn2)c1)C1CC1 (stereo not drawn) [Example 101, N-(6-Chloro-4-(1-cyclopropyl-1-hydroxypropyl)pyridin-3-yl)-2-((5-(trifluoromethyl)pyridin-2-yl)amino)isonicotinamide] | 11 nM | 7.4 nM | 660 nM | – | –
15 | O=C(Nc1cnc(Cl)cc1C(O)C1CC1)c1ccnc(Nc2ccc(C(F)(F)F)cn2)c1 (stereo not drawn) [Example 93, N-(6-Chloro-4-(cyclopropyl(hydroxy)methyl)pyridin-3-yl)-2-((5-(trifluoromethyl)pyridin-2-yl)amino)isonicotinamide] | 2.6 nM | 0.78 nM | 110 nM | – | –
16 | O=C(Nc1cnccc1-c1ccccc1)c1ccnc(Nc2ccc3ccccc3n2)c1 [Example 116, N-(4-Phenylpyridin-3-yl)-2-(quinolin-2-ylamino)isonicotinamide] | 7.8 nM | 3.9 nM | 610 nM | – | –
17 | O=C(Nc1cnccc1OCC(F)(F)F)c1ccnc(Nc2ccc(C(F)(F)F)cn2)c1 [Example 18, N-(4-(Trifluoroethoxy)pyridin-3-yl)-2-((5-(trifluoromethyl)pyridin-2-yl)amino)isonicotinamide] | 0.71 nM | 0.42 nM | 13 nM | – | –
18 | O=C(Nc1cnncc1C1(CCCCl)OCCO1)c1ccnc(Nc2ccc(C(F)(F)F)cn2)c1 [Example 201, N-(5-(2-(3-Chloropropyl)-1,3-dioxolan-2-yl)pyridazin-4-yl)-2-((5-(trifluoromethyl)pyridin-2-yl)amino)isonicotinamide] | 0.19 nM | 0.4 nM | 28 nM | – | –
19 | CC[C@@]1(c2cc(Cl)ncc2NC(=O)c2ccnc(Nc3ccc(C(F)(F)F)cn3)c2)OC[C@H](C(F)(F)F)O1 [Example 86, N-(6-Chloro-4-((2R,4R)-2-ethyl-4-(trifluoromethyl)-1,3-dioxolan-2-yl)pyridin-3-yl)-2-((5-(trifluoromethyl)pyridin-2-yl)amino)isonicotinamide] | 12 nM | 2.4 nM | 510 nM | – | –
20 | COc1cccc(Nc2cc(C(=O)Nc3cncc(-c4ccccc4F)c3)ccn2)n1 [Example 139, N-(5-(2-Fluorophenyl)pyridin-3-yl)-2-((6-methoxylpyridin-2-yl)amino)isonicotinamide] | 5.4 nM | 3.2 nM | 1300 nM | – | –
21 | O=C(Nc1cnccc1C1(F)COC1)c1ccnc(Nc2ccc(C(F)(F)F)cn2)c1 [Example 45, N-(4-(3-Fluorooxetan-3-yl)pyridin-3-yl)-2-((5-(trifluoromethyl)pyridin-2-yl)amino)isonicotinamide] | 17 nM | 11 nM | 150 nM | – | –
22 | CC(C)(C)[S+]([O-])c1ccncc1NC(=O)c1ccnc(Nc2ccc(C(F)(F)F)cn2)c1 (stereo not drawn) [Example 178, N-(4-(tert-Butylsulfinyl)pyridin-3-yl)-2-((5-(trifluoromethyl)pyridin-2-yl)amino)isonicotinamide] | 0.12 nM | 1.2 nM | 13 nM | – | –
23 | N#Cc1ccc(-c2ccncc2NC(=O)c2ccnc(Nc3ccc(C(F)(F)F)cn3)c2)c(F)c1 [Example 52, N-(4-(2-Fluoro-4-cyano-phenyl)pyridin-3-yl)-2-((5-(trifluoromethyl)pyridin-2-yl)amino)isonicotinamide] | 3.6 nM | 1.5 nM | 35 nM | – | –
24 | CCCC1(c2cc(Cl)ncc2NC(=O)c2ccnc(Nc3ccc(C(F)(F)F)cn3)c2)OCCO1 [Example 88, N-(6-Chloro-4-(2-propyl-1,3-dioxolan-2-yl)pyridin-3-yl)-2-((5-(trifluoromethyl)pyridin-2-yl)amino)isonicotinamide] | 0.69 nM | 0.23 nM | 80 nM | – | –
25 | O=C(Nc1cncc(-c2ccccc2F)c1)c1ccnc(Nc2cccc(F)n2)c1 [Example 136, N-(5-(2-Fluorophenyl)pyridin-3-yl)-2-((6-fluoropyridin-2-yl)amino)isonicotinamide] | 11 nM | 2.7 nM | 1100 nM | – | –
26 | O=C(Nc1cnc(F)cc1-c1ccccc1)c1ccnc(Nc2ccc(C(F)(F)F)cn2)c1 [Example 67, N-(6-Fluoro-4-phenylpyridin-3-yl)-2-((5-(trifluoromethyl)pyridin-2-yl)amino)isonicotinamide] | 7 nM | 4 nM | 524 nM | – | –
27 | Cc1cc(Nc2cc(C(=O)Nc3cnccc3-c3ccccc3)ccn2)ncc1F [Example 9, 2-((5-Fluoro-4-methylpyridin-2-yl)amino)-N-(4-phenylpyridin-3-yl)isonicotinamide] | 4.1 nM | 2.5 nM | 110 nM | – | –
28 | N#Cc1ccc(Nc2cc(C(=O)Nc3cncc4ccccc34)ccn2)nc1 [Example 65, 2-((5-Cyanopyridin-2-yl)amino)-N-(isoquinolin-4-yl)isonicotinamide] | 8.5 nM | 3.2 nM | 420 nM | – | –
29 | CC(C)Sc1ccncc1NC(=O)c1ccnc(Nc2ccc(C(F)(F)F)cn2)c1 [Example 173, N-(4-(Isopropylthio)pyridin-3-yl)-2-((5-(trifluoromethyl)pyridin-2-yl)amino)isonicotinamide] | 0.52 nM | 0.19 nM | 48 nM | – | –
30 | COc1cc(C2(C)OCCO2)c(NC(=O)c2ccnc(Nc3ccc(C(F)(F)F)cn3)c2)cn1 [Example 91, N-(6-Methoxy-4-(2-methyl-1,3-dioxolan-2-yl)pyridin-3-yl)-2-((5-(trifluoromethyl)pyridin-2-yl)amino)isonicotinamide] | 3.9 nM | 20 nM | 1200 nM | – | –
